Data published in US11198850B2, “Method for manufacturing telencephalon or progenitor tissue thereof” (RIKEN, priority 2013, dated 2021).

Experiments:
[1] = test system: Human ES cells (KhES-1) aggregates; test: Cortical hem formation in human ES cell aggregates with Wnt signal enhancer, immunohistostaining on day 42; type: cell-based; conditions: 3 μM CHIR99021 alone, day 18 to day 42
Method: Human ES cells (KhES-1; a fluorescence protein gene Venus is knocked-in a telencephalon specific gene Foxg1) were dispersed to single cells by a trypsin treatment, and according to the SFEBq method (Nakano et al, Cell Stem Cell, 2012), aggregates were formed and subjected to suspension aggregate culture at 37° C. in the presence of 5% CO2 for differentiation induction. The dispersed 9000 human ES cells were seeded in each well of a V bottom 96 well plate applied with a low cell adsorptive surface coating, and a growth factor-free G-MEM medium (Gibco/Invitrogen) added with 20% KSR (Knockout Serum Replacement), 0.1 mM non-essential amino acid solution (Gibco/Invitrogen), 1 mM sodium pyruvate solution (Sigma), and 0.1 mM 2-mercaptoethanol was used as the medium for differentiation induction. […] The aggregate was analyzed on day 1 and day 34 from the start of differentiation induction, and analyzed by immunohistostaining on day 42. […] The culture medium used for the culture from day 18 to day 42 was DMEM/F12 medium (Gibco/Invitrogen) added with 1% N2 supplement (Gibco/Invitrogen), 1% lipid concentrate (Chemically defined lipid concentrate, Gibco/Invitrogen), 10% FBS, 5 μg/ml heparin, 3 μM GSK-3β inhibitor CHIR99021 (Wnt signal enhancer) and the aggregates were analyzed by immunohistostaining on day 42.

[2] = test system: hESC-derived cortical neuroepithelium; test: Notch signal inhibition in hESC-derived cortical neuroepithelium, neural stem cell/progenitor and neuron markers; type: cell-based, human; conditions: 10 μM DAPT, days 70-77
Source text: (A-C) Immunostaining of Pax6 and Sox2 in apical and basal (SVZ) neural stem cells/progenitors within the hESC-derived cortical neuroepithelium on day 91. The majority of Sox2 positive cells express Pax6 (C). (D-F) Effects of Notch signal inhibition on the expression of neural stem cells/progenitor and neuron markers in cortical neuroepithelium. […] An increase of cortical neuroepithelium thickness also observed after the treatment (F). ***P<0.001, Student t tests between with DAPT (n=6) and without DAPT (n=5) treatment. (G) Schematic of oRG neural stem cells/progenitors in the human fetal outer SVZ. (H and H′) Phospho-vimentin+ neural stem cells/progenitors in the SVZ expressed Sox2. (I) Phospho-vimentin+ neural stem cells/progenitors in the SVZ with a long […] process extending toward the pial surface. (J) Phospho-vimentin+ SVZ neural stem cells/progenitors with a basal process carried a pericentin+ centrosome in the neurons. During mitosis, two pericentin+ centrioles were found for dividing cells. […] (Scale bars, 100 μm in A-E; 25 μm in H-K.)
Cortical neuroepithelium induced from hESCs were subjected to culture under the following conditions. On day 18, the cell aggregates were transferred to a 9-cm Petri dish (non-cell adhesive surface coat) and further cultured in DMEM/F12 medium (Gibco/Invitrogen) supplemented with 1% N2 supplement (Gibco/Invitrogen), 1% lipid concentrate (Chemically Defined Lipid Concentrate, Gibco/Invitrogen), 0.25 mg/mL Fungizone, 100 U/mL penicillin, and 100 μg/mL streptomycin at 37° C. in the presence of 5% CO2 and 40% O2. From day 35, 10% FBS, 5 μg/mL heparin, and 1% Matrigel growth factor-reduced (BD Biosciences) were also added to the medium. To prevent cell death in the central portions of cell aggregates, the aggregates were cut into half-size with fine forceps under a dissecting microscope every 2 wk after day 35 and were cultured using a lumox culture dish (SARSTEDT; O2 penetrating) after day 56. From day 70, the concentration of Matrigel was increased (final 2%) and B27 supplement (Gibco/Invitrogen) was added to the medium.

[3] = test system: Human ES cells (KhES-1) aggregates; test: Induction of basal ganglia progenitor tissue (LGE/MGE) in human ES cell aggregates by Shh signal agonist, immunohistostaining on day 35; type: cell-based
Method: Human ES cells (KhES-1; a fluorescence protein gene Venus is knocked-in a telencephalon specific gene Foxg1) were dispersed to single cells by a trypsin treatment, and according to the SFEBq method (Nakano et al, Cell Stem Cell, 2012), aggregates were formed and subjected to suspension aggregate culture at 37° C. in the presence of 5% CO2 for differentiation induction. The dispersed 9000 human ES cells were seeded in each well of a V bottom 96 well plate applied with a low cell adsorptive surface coating, and a growth factor-free G-MEM medium (Gibco/Invitrogen) added with 20% KSR (Knockout Serum Replacement), 0.1 mM non-essential amino acid solution (Gibco/Invitrogen), 1 mM sodium pyruvate solution (Sigma), and 0.1 mM 2-mercaptoethanol was used as the medium for differentiation induction. To suppress dispersion-induced cell death, 20 μM of a ROCK inhibitor Y-27632 was added for the first 3 days of differentiation induction, and the concentration thereof was reduced to half for the next 3 days. From day 0 to day 18 after the start of the differentiation induction, Wnt signal inhibitor IWR-1-end (3 μM) and TGFβ signal inhibitor SB431542 (5 μM) were added and allowed to react. On day 18 from the start of differentiation induction, these aggregates were transferred to a 9 cm petri dish applied with low cell-adhesive surface coating, and suspension culture was performed at 37° C., in the presence of 5% CO2, 40% O2. From day 18 to day 35, DMEM/F12 medium (Gibco/Invitrogen) added with 1% N2 supplement (Gibco/Invitrogen), and 1% lipid concentrate (Chemically defined lipid concentrate, Gibco/Invitrogen) was used. From day 35, the medium further added with 10% FBS, 5 μg/ml heparin, and 1% Matrigel growth factor reduced (BD Bioscience) was used. The aggregate was analyzed on day 1 and day 34 from the start of differentiation induction, and analyzed by immunohistostaining on day 42.
Up to day 35 of differentiation induction, cells were cultured under culture conditions similar to those of Example 1. That is, human ES cell aggregates were cultured in a V bottom 96 well plate up to 18 days after differentiation induction, suspended aggregates were transferred to a non-cell adhesive petri dish (diameter […]), and suspension culture was performed at 37° C. in the presence of 5% CO2, 40% O2 from day 18 to day 35 of differentiation induction. However, Sonic hedgehog (Shh) signal agonist SAG was added to the culture medium of Example 1 at a final concentration of 30 nM or 500 nM only in the period of from day 15 to day 21 and allowed to react. The aggregate was analyzed by immunohistostaining on day 35.
Up to day 35 of differentiation induction, cells were cultured under culture conditions similar to those of Example 2. That is, human ES cell aggregates were cultured in a V bottom 96 well plate up to 18 days after differentiation induction, suspended aggregates were transferred to a non-cell adhesive petri dish (diameter 9 cm), and suspension culture was performed at 37° C. in the presence of 5% CO2, 40% O2, from day 18 to day 35 of differentiation induction. However, Shh signal agonist SAG was added to the culture medium at a concentration of 30 nM only in the period of from day 15 to day 21 of differentiation induction. The aggregate was analyzed by immunohistostaining on day 35.
Ventralization of cortical neuroepithelium was performed by adding hedgehog agonist SAG (30 nM or 500 nM) during culture days 15-21. The cell aggregates were fixed on culture day 35.

[4] = test system: hESC-derived cortical neuroepithelium; test: Rolling morphogenesis of hESC-derived cortical neuroepithelium with ROCK inhibitor; type: cell-based, human; conditions: P<0.001 vs control, Fisher's exact test, dihydrochloride
Source text: (A-I) Asymmetric progression of rounding morphogenesis of hESC-derived cortical neuroepithelium. Arrows indicate boundary of a cortical neuroepithelium domain in A and rolling epithelium in B-D. Arrowheads indicate rolling epithelium in E. Arrows indicate rounding movements of the neuroepithelium in F-I. (J-L) Effect of the ROCK inhibitor Y-27632 on the rolling of cortical neuroepithelium. […] Treatment group, n=187 neuroepithelium domains; control group, n=130. (M and N) The rolling shape was preferentially observed on the side with strong expression of Otx2 and Coup-TF1 (dorsal and caudal markers). (O-Q) Adjacent formation of neuroepithelium structures of cortex (Pax6+) and LGE (Gsh2+; with GAD65^+ GABAergic neurons underneath) on day 35. The cortical side contacting the LGE domain was opposite to the side with strong rolling (arrow). (R) Interkinetic nuclear migration in the hESC-derived cortical neuroepithelium on day 24 (two-photon imaging). Visualized with partial mixing of pax6::venus reporter hESCs with nonlabeled hESCs. Two daughter cells with both apical and basal processes were generated from an apically dividing progenitor. (Scale bars, 200 μm in A; 100 μm in B-H and J-N; 200 μm in O-Q.) Nuclear counter staining (blue), DAPI.

[5] = 30 nM SAG, day 15 to day 21, analysed day 35

Cc1cnc(-c2cnc(NCCNc3ccc(C#N)cn3)nc2-c2ccc(Cl)cc2Cl)[nH]1 [CHIR99021, 6-[[2-[[4-(2,4-Dichlorophenyl)-5-(5-methyl-1H-imidazol-2-yl)-2-pyrimidinyl]amino]ethyl]amino]-3-pyridinecarbonitrile]
aggregates with selective formation of cortical hem [1]: not less than 80%

C[C@H](NC(=O)Cc1cc(F)cc(F)c1)C(=O)N[C@H](C(=O)OC(C)(C)C)c1ccccc1 [DAPT]
Satb2+ neurons [2]: increased | Sox2+ Tbr2− cells after the treatment [2]: rarely remained | Sox2− Tbr2+ intermediate neural stem cells/progenitors [2]: increased | cortical neuroepithelium thickness ([2]; P<0.001): increase

CNC1CCC(N(Cc2cccc(-c3ccncc3)c2)C(=O)c2sc3ccccc3c2Cl)CC1 (stereo not shown) [SAG]
Gsh2 (LGE marker) expression in foxg1::Venus-expressing neural epithelium ([3]; 30 nM SAG for days 15-21): a substantial portion of foxg1::Venus-expressing neural epithelium expressed Gsh2 | aggregates with Gsh2 positive LGE neuroepithelium [3, 5]: not less than 70% | aggregates with continuous self-formation of cerebral cortex and basal ganglion in one aggregate [3, 5]: not less than 50% | percentage of Gsh2+ neuroepithelium in Foxg1+ telencephalic neuroepithelium ([3]; 30 nM SAG, days 15-21): increased | percentage of Pax6+ neuroepithelium in Foxg1+ telencephalic neuroepithelium ([3]; 30 nM SAG, days 15-21): partially suppressed | aggregates with Foxg1::venus positive and Nkx2.1 positive MGE neuroepithelium ([3]; 500 nM SAG, day 15 to day 21, analysed day 35): not less than 80% | Nkx2.1+ neuroepithelium as share of Foxg1+ telencephalic NE ([3]; 500 nM SAG, days 15-21): 40-50% | expression of both Pax6 and Gsh2 ([3]; 500 nM SAG, days 15-21): efficiently suppressed | MGE marker Nkx2.1 expression ([3]; high concentrations of SAG (500 nM), days 15-21): induced the MGE marker Nkx2.1 at the cost of Pax6 and Gsh2 expression

C[C@@H](N)[C@H]1CC[C@H](C(=O)Nc2ccncc2)CC1.Cl.Cl [Y-27632, (+)-(R)-trans-4-(1-aminoethyl)-N-(4-pyridyl)cyclohexanecarboxamide dihydrochloride]
rolling morphogenesis of cortical neuroepithelium [4]: Attenuation of rolling morphogenesis | rolling morphogenesis of cortical neuroepithelium ([4]; listed as ROCK inhibitor): attenuated
